Key:
rat TRPM8 channel = molecular target: T1, rat TRPM8 channel (Rattus norvegicus, UniProt Q8R455); assay: Ca2+ microfluorometry, menthol-induced Ca2+ influx in HEK293 cells expressing rat TRPM8; type: cell-based; details: 100 µM menthol, HEK-rTRPM8; for % Blockade 5 µM: 5 µM compound; for % Blockade 50 µM: 50 µM compound; for IC50: Ca2+ microfluorometry
T1 construct: expressed in transfected cells; host or cells: HEK293 (stably transfected)
Method: The ability to inhibit menthol-induced Ca^2+ intracellular influx into the cytosol on HEK293 cells heterologously expressing the rat TRPM8 channel was measured and compared to that of AMTB, a well-known TRPM8 antagonist. Representative recordings of fluorescence obtained in microfluorometry experiments for selected compounds are in Supplementary Fig. S3.
Human embryonic kidney cell line (HEK) stably transfected with rTRPM8 or h-TRPV1 were used as previously described. Briefly, cells were seeded in 96-well plates at a cell density of 30,000 cells 2 days before treatment. Buffer used was HBBS (in mM): 138 NaCl, 5.33 KCl, 1.26 CaCl2, 0.5 MgCl-6H2O, 0.4 MgSO4-7H2O, 4 NaHCO3 0.44 KH2PO4, 0.3 Na2HPO4, pH 7.4. The day of treatment the medium was replaced with 100 µL of the dye loading solution Fluo-4 NW supplemented with probenecid 2.5 mM. After incubation, plates were transferred to a fluorescence plate reader (Polastar BMG). In the experimental protocol, the baseline fluorescence was recorded ([…]) for 3 cycles. After, vehicle, compound at different concentrations and the corresponding antagonist, 10 µM AMTB for TRPM8 or 10 µM Ruthenium Red for TRPV1 were added to the well. Fluorescence intensity was recorded during 7 cycles more. Finally, the agonist 100 µM menthol for TRPM8 or 1 µM capsaicin for TRPV1 was added and fluorescence intensity was recorded during 10 cycles more.
The degree of inhibition of TRPM8 channel gating was calculated by comparison to calcium increase signal elicited by test substances and menthol at 100 µM. Decrease of menthol signal was expressed as percentage of inhibition (%). All data are expressed as mean ± standard deviation (SD). Each condition was assessed by triplicate (n = 3) in 3 independent experiments (N = 3). Z-factor was calculated in each assay using the following equation: […]. In all the experiments Z-factor was ≥ 0.5. To calculate IC50, normalized responses (%) versus log [µM] were adjusted to a non-linear fit with variable slope, a four-parameter dose–response curve following curve Y = 100/(1 + 10^((Log IC50-X)*HillSlope)) where […].

rTRPM8 = molecular target: T2, rTRPM8 (Rattus norvegicus, UniProt Q8R455); assay: Patch-clamp electrophysiology, whole cell, HEK293 cells expressing rTRPM8; type: cell-based; details: for IC50: Patch-clamp, holding potential -60 mV, read-out: IC50 TRPM8 current blockade; for Hill coefficient n: fit of concentration-response curve, -60 mV
T2 construct: expressed in transfected cells; host or cells: HEK293 (stably transfected)
Text: The TRPM8 antagonist activity of the enantiopure β-lactams 24a and 29a was further confirmed electrophysiologically by Patch-clamp experiments, using the whole cell configuration in HEK293 cells expressing TRPM8 channels.
The dose–response curve for both compounds was obtained at a holding potential of -60 mV (Supplementary Fig. S4).
Figure 2 Compounds 24a and 29a block TRPM8-mediated responses evoked by menthol in rTRPM8-expressing HEK293 cells. (A, C). I–V curves obtained in HEK293 cells expressing TRPM8 and exposed to vehicle solution (Vehicle; black trace; A,C), 100 µM menthol (red trace; A,C), 100 µM menthol + 10 µM 24a (blue trace; A) or to 100 µM menthol + 10 µM compound 29a (blue trace; C) (B,D), Concentration − response curves for TRPM8 current blockade by compound 24a (B) or compound 29a (D) at a holding voltage of -60 mV. Peak current data were expressed as pA/pF (to facilitate comparison among cells of different size) and expressed as a function of antagonist concentrations. The solid lines represent fits of the experimental data to the following binding isotherm: y = max/(1 + x/EC50)n, where x is the drug concentration and n the Hill coefficient. The fitted values for n were 0.97 ± 0.05 or 0.98 ± 0.6 for compound 24a or 29a, respectively. Each point is the mean ± SD of 8 (for compound 24a) or 9 (for compound 29a) determinations, each obtained in different cells. TEXT PRINTED IN THE PICTURE: (B) 24a: IC50=1,4±1,1 μM | (D) 29a: IC50=0,8±1,2 μM
Electrophysiological recording was carried out 1–3 days after cells seeded. Membrane currents and voltages were recorded by patch clamp using the whole-cell configuration. For whole-cell recordings of HEK-rTRPM8 cells, pipette solution contained (in mM) 150 NaCl, 5 EGTA, 3 MgCl2 and 10 HEPES, adjusted to pH 7.2 with NaOH, and bath solution contained (in mM) 150 NaCl, 6 CsCl, 1.5 CaCl2, 1 MgCl2, 10 D-glucose and 10 HEPES, adjusted to pH 7.4 with NaOH. Data were sampled at 10 kHz (EPC10 amplifier with PatchMaster 2.53 software, HEKA Electronics, Lambrecht, Germany) and low-pass filtered at 3 kHz for analysis (PatchMaster 2.53 and GraphPad Prism 5, Graphpad Software, USA). The series resistance was < 10 MΩ and to minimize voltage errors was compensated to 60–80%. All measurements were performed at 24–25 °C. The TRPM8 response was quantified as the ratio P2/P1, being P2 the second menthol pulse in the presence of the vehicle or antagonist tested, and P1 refers to the first menthol pulse. This paradigm considers the extend of receptor desensitization as the P2/P1 obtained with the vehicle. Thus, the estimated IC50 values are corrected from receptor desensitization.

T1 sequence (Q8R455 whole entry): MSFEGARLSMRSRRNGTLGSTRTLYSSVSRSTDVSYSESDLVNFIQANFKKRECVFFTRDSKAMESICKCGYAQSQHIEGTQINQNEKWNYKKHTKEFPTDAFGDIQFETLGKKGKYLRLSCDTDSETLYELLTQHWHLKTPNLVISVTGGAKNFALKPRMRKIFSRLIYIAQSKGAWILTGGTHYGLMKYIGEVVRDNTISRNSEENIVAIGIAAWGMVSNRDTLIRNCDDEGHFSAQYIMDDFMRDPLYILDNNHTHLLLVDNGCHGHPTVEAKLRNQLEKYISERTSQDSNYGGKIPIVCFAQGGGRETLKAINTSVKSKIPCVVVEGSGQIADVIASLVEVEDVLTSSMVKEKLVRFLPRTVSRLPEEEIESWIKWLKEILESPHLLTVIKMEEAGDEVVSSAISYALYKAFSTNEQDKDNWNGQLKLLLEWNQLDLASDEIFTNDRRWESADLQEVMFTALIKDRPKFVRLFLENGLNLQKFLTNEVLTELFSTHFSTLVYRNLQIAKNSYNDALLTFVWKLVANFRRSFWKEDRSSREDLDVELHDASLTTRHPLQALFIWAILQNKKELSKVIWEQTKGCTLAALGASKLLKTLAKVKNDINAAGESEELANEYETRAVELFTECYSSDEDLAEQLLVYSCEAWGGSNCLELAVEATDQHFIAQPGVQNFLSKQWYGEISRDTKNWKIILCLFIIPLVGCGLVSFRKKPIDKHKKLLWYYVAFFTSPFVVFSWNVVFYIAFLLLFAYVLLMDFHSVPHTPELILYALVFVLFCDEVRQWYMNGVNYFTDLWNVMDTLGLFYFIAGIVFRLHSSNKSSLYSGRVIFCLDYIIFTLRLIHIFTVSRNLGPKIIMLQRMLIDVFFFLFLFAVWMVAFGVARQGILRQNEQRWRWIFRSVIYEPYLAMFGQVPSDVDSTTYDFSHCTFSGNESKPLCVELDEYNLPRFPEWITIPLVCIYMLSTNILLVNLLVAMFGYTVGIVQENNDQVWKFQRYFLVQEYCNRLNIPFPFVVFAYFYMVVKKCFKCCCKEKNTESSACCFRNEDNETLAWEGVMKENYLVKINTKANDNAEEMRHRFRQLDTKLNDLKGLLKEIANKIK
T2 sequence (Q8R455 whole entry): as above

% Blockade 5 µM (rat TRPM8 channel) [%]	% Blockade 50 µM (rat TRPM8 channel) [%]	IC50 (rat TRPM8 channel) [nM]	IC50 (rTRPM8; 100 µM menthol) [nM]	Hill coefficient n (rTRPM8)	SMILES	Effect on menthol-mediated TRPM8 activity (I-V curve) (rTRPM8; 10 µM compound, 100 µM menthol, +120 mV)
65.4 ± 6.4	110.7 ± 11.7	2400 ± 1200	1400	0.97 ± 0.05	C[C@@H]1C(=O)N(C[C@H](Cc2ccccc2)NC(=O)OCc2ccccc2)[C@]1(Cc1ccccc1)C(=O)OCc1ccccc1 [Compound 24a, 4S-Benzyl-4-benzyloxycarbonyl-3S-methyl-1-[(2′S-benzyloxycarbonylamino-3′-phenyl)prop-1′-yl]-2-oxoazetidine]	important reduction on the menthol-mediated TRPM8 activity
97.2 ± 4.8	100.0 ± 5.0	400	800	0.98 ± 0.6	C[C@@H]1C(=O)N(C[C@@H](Cc2ccccc2)NC(=O)OCc2ccccc2)[C@]1(Cc1ccccc1)C(=O)OCc1ccccc1 [Compound 29a, 4S-Benzyl-4-benzyloxycarbonyl-3S-methyl-1-[(2′R-benzyloxycarbonylamino-3′-phenyl)prop-1′-yl]-2-oxoazetidine]	
